Experimental data reported in patent publication US12351574B2, “Selective ligands for modulation of GIRK channels” (Northeastern University, priority 2018, dated 2025).

What was measured:
[1] = system: fear memories (freezing behavior); assay: cued fear conditioning test; assay type: in vivo, rat; conditions: for effect on fear acquisition (in words): FIG. 62A
Procedure: Cued fear conditioning test: On day 1, animals were habituated to the sound attenuating fear conditioning chamber (Kinder Scientific, Poway, CA) for 10 min. Between each animal, the chamber was cleaned with 70% ethanol. On day 2, acquisition of fear was achieved by placing rats back into the chamber for a 120 s acclimation period and then five pairings (120 s inter-trial interval) of the conditioned stimulus (CS; 20 s, 80 dB) followed immediately by the unconditioned shock stimulus (US; 500 ms, 0.8 mA foot shock). On day 3, CS consolidation was assessed by placing the rats back into the chamber with a 120 s acclimation period followed by five presentations of the CS only (20 s, 80 dB) with 120 s inter-trial-intervals. On day 4, extinction was assessed by presenting a 120 s acclimation period followed by 20 trials of the CS (20 s, 80 dB) with 120 s inter-trial-intervals. The same experimenter (SDF) handled the rats during all sessions and was blinded to the treatment. All trials were digitally video-recorded. For this behavioral test and all others, blind scoring was aided by modification of video file names by AIM. Freezing behavior (no visible signs of movement) was scored by SDF during the sound presentation and converted to percentage of total time. The acquisition, expression, extinction and recall of fear memories were assessed in a […] learning paradigm (modified from Johnson, P. L., et al., Pharmacological depletion of serotonin in the basolateral amygdala complex reduces anxiety and disrupts fear conditioning, Pharmacol Biochem Behav, 2015. 138: p. 174-9). Rats were habituated to the sound attenuating fear conditioning chamber on day 1 (Kinder Scientific, Poway, CA) for 10 min. For all experiments, the chamber was cleaned between animals. On day 2 acquisition of fear occurred where the rats were placed back into the chamber and after a 120 s acclimation period received 5 pairings (120 s inter-trial interval) of the conditioned stimulus (CS; 20 s, 80 dB) followed immediately by the unconditioned shock stimulus (US; 500 ms, 0.8 mA foot shock). On day 3 conditioned stimulus (CS) consolidation was assessed by placing the rats back into the chamber with a 120 s acclimation period followed by 5 presentations of the CS only (20 s, 80 dB) separated by 120 s. On day 4 extinction was assessed which consisted of the 120 s acclimation period followed by 20 trials of the CS (20 s, 80 dB) separated by 120 s intervals. On day 5, all animals were assessed for the recall. Animals were placed in the chamber and were presented with 5 tones. The same experimenter handled the rats during all sessions and was blinded to the phenotype. All trials were digitally video-recorded. Freezing behavior (no visible signs of movement) was scored by a blind scorer during the sound presentation and converted to percentage of total time.

GIRK1/2 = molecular target: T1, GIRK1/2 (UniProt P48542+P48549); assay: diC8-PIP2 concentration-response (NPo), inside-out macropatches from Xenopus oocytes, GIRK1/2; assay type: cell-based, human GIRK1, mouse GIRK2; parameters: expressed in transfected cells; host or cells: Xenopus laevis oocytes (cRNA injection); conditions: in the presence of 10 μM compound; for EMAX of diC8-PIP2 response (NPo), GIRK1/2: control 5.7±0.3; for apparent affinity of GIRK1/2 channels to diC8-PIP2: control 36±7 μM
T1 sequence (P48549 1-501): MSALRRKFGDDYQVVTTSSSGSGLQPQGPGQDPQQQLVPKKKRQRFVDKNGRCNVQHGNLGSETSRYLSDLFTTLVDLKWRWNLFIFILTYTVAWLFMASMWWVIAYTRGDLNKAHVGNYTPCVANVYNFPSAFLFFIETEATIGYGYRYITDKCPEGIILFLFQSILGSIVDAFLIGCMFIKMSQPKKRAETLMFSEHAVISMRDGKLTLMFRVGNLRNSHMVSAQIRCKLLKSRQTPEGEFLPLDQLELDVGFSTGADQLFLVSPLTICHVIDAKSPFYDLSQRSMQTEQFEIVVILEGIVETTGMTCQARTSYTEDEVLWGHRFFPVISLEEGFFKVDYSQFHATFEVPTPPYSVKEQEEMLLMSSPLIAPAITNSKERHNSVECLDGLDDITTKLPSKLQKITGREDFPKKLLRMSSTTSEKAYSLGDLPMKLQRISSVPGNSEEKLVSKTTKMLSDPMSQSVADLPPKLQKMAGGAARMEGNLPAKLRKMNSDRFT
T1 sequence (P48542 1-425): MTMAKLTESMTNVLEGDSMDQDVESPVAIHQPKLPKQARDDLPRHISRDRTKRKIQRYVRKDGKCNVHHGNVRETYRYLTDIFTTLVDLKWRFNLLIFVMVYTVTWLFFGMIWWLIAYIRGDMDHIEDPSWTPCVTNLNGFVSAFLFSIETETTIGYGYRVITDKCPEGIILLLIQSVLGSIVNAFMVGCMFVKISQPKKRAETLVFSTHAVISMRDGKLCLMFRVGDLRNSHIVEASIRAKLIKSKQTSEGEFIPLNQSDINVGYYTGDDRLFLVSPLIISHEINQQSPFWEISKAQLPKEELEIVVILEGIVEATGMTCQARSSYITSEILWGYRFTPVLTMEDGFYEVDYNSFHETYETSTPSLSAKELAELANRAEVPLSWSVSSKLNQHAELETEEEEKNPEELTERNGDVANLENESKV
Source text: The inventors next turned to inside-out macropatches from Xenopus oocytes to compare changes in the PIP2 sensitivity by examining diC8 concentration-responses in the absence and presence of saturating concentrations of each of the activating compounds. […] In FIG. 14B, the control plot overlays the GAT1508 and GAT1521 plots; only ML297 was able to left-shift the sensitivity of GIRK1/4 heteromers to PIP2, while both GAT1508 and GAT1521 were ineffective in changing the sensitivity of these heteromers to PIP2.
Xenopus laevis oocyte expression: Plasmid DNAs of GIRK channel subunits were linearized prior to in vitro transcription. Capped RNAs were transcribed using mMESSAGE mMACHINE T7 Transcription Kit (Thermo Fisher Scientific). Xenopus oocytes were surgically extracted, dissociated and defolliculated by collagenase treatment, and microinjected with 50 nl of a water solution containing 1 ng of each GIRK subunit RNA. For TEVC experiments, oocytes were kept 2 days at 17° C. before recording, while for NPo experiments oocytes were incubated for up to 4 days at 17° C.
Oocyte macropatch studies: Macropatch GIRK channel activity was recorded from devitellinized oocytes under the inside-out mode of standard patch clamp methods using an AM2400 patch clamp amplifier (A-M systems). […] Oocytes were bathed with a solution comprising (in mM): 96 KCl, 5 EGTA, 1 MgATP and 10 HEPES (pH 7.4). Current amplitudes were measured at −80 mV with a sampling rate of 10 kHz. Data were analyzed using WinEDR and Clampfit software (Molecular Devices).

[2] = 10 or 30 mg/kg i.p., FIGS. 27, 28
[3] = 10 or 30 mg/kg i.p., after acquisition and 30 min prior to consolidation, FIGS. 27, 28
[4] = 30 mg/kg, vehicle tone 5 (GAT1521 study), tone 6 (ML297 study)

Structure (SMILES) | effect on fear acquisition (in words) ([1]; 10 mg/kg) | effect on fear consolidation (in words) ([1]; 10 mg/kg, FIG. 62B) | effect on fear acquisition (in words) ([1]; 30 mg/kg, early pairings) | extinction of fear memories versus vehicle (in words) [1, 2] | effect on consolidation of fear memories (in words) [1, 3] | recall of the freezing behavior (in words) ([1]; FIG. 62E) | tone by which freezing was significantly reduced during extinction ([1]; GAT1508 group, control group tone 7) [tone] | fear extinction of the freezing behavior (in words) ([1]; follow-up experiments, FIGS. 62C-62D, 63) | EMAX of diC8-PIP2 response (NPo), GIRK1/2 (GIRK1/2) | apparent affinity of GIRK1/2 channels to diC8-PIP2 (GIRK1/2) [µM] | tone by which freezing was significantly reduced during extinction [1, 4] [tone] | effect on consolidation of fear memories (in words) ([1]; 30 mg/kg, FIG. 29) | extinction of fear memories versus controls (in words) ([1]; 30 mg/kg, FIG. 29)
Cc1cc(NC(=O)Nc2ccc(Br)s2)n(-c2ccccc2)n1 [GAT1508, 1-(5-bromothiophen-2-yl)-3-(3-methyl-1-phenyl-1H-pyrazol-5-yl)urea] | no significant effects | no significant effects | significant reductions in fear acquisition | extinguished fear memories much faster | no effects | No significant changes | 4 | more efficient extinction of the freezing behavior | 10.5±0.3 | 5.5 ± 7 | – | – | –
Cc1cc(NC(=O)Nc2ccc(C)s2)n(-c2ccccc2)n1 [GAT1521, 1-(3-methyl-1-phenyl-1H-pyrazol-5-yl)-3-(5-methylthiophen-2-yl)urea] | – | – | – | significantly reduced overall freezing during extinction | affected consolidation of fear memories | – | – | – | 9.1±0.2 | 11 ± 2 | 3 | – | –
Cc1cc(NC(=O)Nc2ccc(F)c(F)c2)n(-c2ccccc2)n1 [ML297, reference compound] | – | – | – | – | – | – | – | – | 7.5±0.4 | 23 ± 5 | 6 | no effect | no significant differences
